The values that follow are results of earlier work, collected in US9421238B2 (priority 2013, dated 2016).

Like-named read-outs stand apart in the source and are kept apart here.

The conditions of the data set: rat, CO-60 in liver.

As for `N[C@@H](CCC(=O)N[C@@H](CS)C(=O)NCC(=O)O)C(=O)O` [Plain glutathione, glutathione], the removal of toxin (intravenous administration) is listed as 64%. Moreover, where the note is “oral administration”, the removal of toxin was 0% and the toxin remained/remaining was 100%.
